Assay results published in publication PMC3171563 (2011).

Legend:
[1] = molecular target: T1, histone deacetylase 8 (HDAC8) (Homo sapiens, UniProt Q9BY41); assay: Fluor-de-Lys fluorescence deacetylase assay; type: biochemical
T1 sequence (Q9BY41 1-377): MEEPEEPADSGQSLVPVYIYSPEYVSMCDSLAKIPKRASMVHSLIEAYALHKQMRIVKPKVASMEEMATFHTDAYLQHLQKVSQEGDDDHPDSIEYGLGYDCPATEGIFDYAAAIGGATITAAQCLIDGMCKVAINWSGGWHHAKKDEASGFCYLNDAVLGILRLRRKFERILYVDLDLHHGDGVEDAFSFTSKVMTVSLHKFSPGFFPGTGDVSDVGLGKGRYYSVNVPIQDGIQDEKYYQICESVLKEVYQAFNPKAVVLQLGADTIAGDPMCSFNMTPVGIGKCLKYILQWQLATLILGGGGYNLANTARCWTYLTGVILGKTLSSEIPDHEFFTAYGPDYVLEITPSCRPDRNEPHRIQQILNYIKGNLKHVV

[2] = molecular target: acetylpolyamine amidohydrolase (APAH) (Mycoplana ramosa, UniProt Q48935); assay: Fluor-de-Lys fluorescence deacetylase assay; type: biochemical
Chain of acetylpolyamine amidohydrolase (APAH) (Q48935 whole entry): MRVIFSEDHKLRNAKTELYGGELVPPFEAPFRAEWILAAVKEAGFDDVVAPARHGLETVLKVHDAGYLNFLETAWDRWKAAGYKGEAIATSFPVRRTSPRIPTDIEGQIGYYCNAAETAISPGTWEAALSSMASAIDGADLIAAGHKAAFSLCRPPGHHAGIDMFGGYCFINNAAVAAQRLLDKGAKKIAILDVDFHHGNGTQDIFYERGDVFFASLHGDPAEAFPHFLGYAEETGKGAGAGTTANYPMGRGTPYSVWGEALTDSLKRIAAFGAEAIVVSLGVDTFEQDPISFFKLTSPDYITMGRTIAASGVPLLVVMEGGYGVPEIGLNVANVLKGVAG

N[C@@H](CCCCC(=O)C(F)(F)F)C(=O)O [compound 10, (S)-2-amino-8,8,8-trifluoro-7-oxo-octanoic acid]
IC50 [1]: 1.5 ± 0.2 µM
IC50 [2]: 110 ± 30 µM
